The target in one test is T1, GHSR1a receptor (Homo sapiens, UniProt Q92847).
T1 construct: expressed in transfected cells; host or cells: HEK293 (membranes)
Kind of test: 125I-Ghrelin binding assay. As to conditions: Binding pKi, displacement of 125I-ghrelin (0.053 nM), membranes of HEK293 cells transfected with GHSR1a; Cheng-Prussoff; '—' not defined. The protocol: Plasmid DNA containing the GHSR1a receptor (12.5 ug/dish) in 0.675 ml DMEM was transfected into the cells by mixing with 180 ul PolyFect, 15 min later mixing in 2.25 ml 10% CS/DMEM, and transferring the mixture into the dish. At 16-18 h post transfection, medium was replaced with 25 ml fresh 10% FCS/1% PSG/DMEM to each dish for another 18-20 h. At approximately 48 hours post-transfection, cells were harvested in ice-cold membrane buffer (20 mM HEPES, 6 mM MgCl2, 1 mM EDTA, pH to 7.2) using a cell scraper, and pelleted by centrifugation.
Pelleted cells were added to a nitrogen cavitation chamber and 900 bar of pressure applied for 30 min. The pressure was slowly released the cavitated cells collected in 50 ml falcon tubes. The tubes were centrifuged at 1000 rpm, 4° C. for 10 min, and the supernatant collected. This centrifugation and collection was repeated two more times until the supernatant was free of precipitate (membranes are still in suspension). The supernatant was poured into a 50 ml centrifuge tube and centrifuged at 10.000 rpm, 4° C. for 20 min. The supernatant was discarded and the pellet re-suspended in 750 μl membrane binding buffer using a chilled 1 ml syringe with 25G5/8 needle to re-suspend membranes. The protein concentration was determined using the BioRad Protein Assay Dye Reagent according to the manufacturers instructions. The protein concentration was adjusted to 5 mg/ml and aliquots snap-frozed and stored at −80 C until use.
Membranes were thawed rapidly; diluted with binding buffer (25 mM Hepes+5 mM MgCl2, 1 mM CaCl2, 2.5 mM EDTA and 0.2% BSA) to a protein concentration of 0.8 ug/30 ul and placed on ice. 96-well plates (U-bottom wells) were prepared with serial dilutions (8 doses, 40 ul/w) of the test compounds. Membranes (30 uL/well) were then added, and incubated with test ligands for 30 min at room temperature with shaking. […] Binding was terminated by filtration through GF/B filters (presoaked with 0.1% polyethylenimine) with a Brandel 96-well harvester. The filters were washed with ice-cold binding buffer (150 ml/plate) and allowed to air-dry for 30 min. 50 ul MicroScient-20 cocktail was added to each dried well, the plates were sealed, and counted for 2 min/well using a TopCount scintillation counter (Packard).
On the technique in general: Loss of bound radioactivity is the signal in a displacement assay; it reports binding, not function.

In a further test the target is Ghrelin receptor (Homo sapiens, UniProt Q92847). Kind of test: Receptor Selection and Amplification Technology (R-SAT) assay. The class given is cell-based. Also on record: expressed in transfected cells; host or cells: NIH3T3. As to conditions: for IC50: '—' not defined (nd used separately), read-out: RSAT pIC50 (converted); for Emax: read-out: RSAT Eff(%).
Ghrelin receptor, sequence (Q92847 whole entry): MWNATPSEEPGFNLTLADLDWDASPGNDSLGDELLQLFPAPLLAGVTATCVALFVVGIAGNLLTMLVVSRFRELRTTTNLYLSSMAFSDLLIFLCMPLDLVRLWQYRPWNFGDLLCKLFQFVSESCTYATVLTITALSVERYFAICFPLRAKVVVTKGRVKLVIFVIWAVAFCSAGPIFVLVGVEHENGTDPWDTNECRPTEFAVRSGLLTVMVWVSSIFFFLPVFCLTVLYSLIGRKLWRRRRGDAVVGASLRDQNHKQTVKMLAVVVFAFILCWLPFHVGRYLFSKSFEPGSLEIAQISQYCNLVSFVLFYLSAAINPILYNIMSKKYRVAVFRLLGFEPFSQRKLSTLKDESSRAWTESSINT

T1 sequence (Q92847 whole entry): as above

By Ki is commonly meant the equilibrium dissociation constant of an inhibitor or competing ligand from its target. The molecule `CCCCC[C@H]1C[C@H]2CC[C@@H](C1)N2CCCn1cc(C(=O)NCc2cccc(C)c2)c2cccc(OC)c21` gave a Ki at GHSR1a receptor of 50.1 nM. On Ghrelin receptor, the IC50 was 2 nM and the Emax stood at 90%.
On the same counts, the results for `COc1cccc2c(C(=O)NCc3cccc(C)c3)cn(CCCN3CCC(c4nc5ccccc5s4)CC3)c12` are 63.1 nM, 2.51 nM and 94%.
In turn, `COc1cccc2c(C(=O)NCc3cccc(C)c3)cn(CCCN3CCC(Oc4ccc(F)cc4)CC3)c12` gave an inhibition constant Ki on GHSR1a receptor of 100 nM. Further, at Ghrelin receptor, the IC50 was 3.16 nM and the Emax came to 81%.
On the same counts, the results for `COc1cccc2c(C(=O)C3CC3)cn(CCCN3C4CCC3CC(CCc3ccc(Cl)cc3)C4)c12` (stereo not shown) are 20 nM, 3.98 nM and 103%.
On the same counts, the results for `COc1cccc2c(C(=O)NCc3cccc(C)c3)cn(CCCN3CCC(c4nc(-c5cccnc5)no4)CC3)c12` are 158 nM, 79.4 nM and 97%.
On the same counts, the results for `COc1cccc2c(C(=O)NCc3cccc(Cl)c3)cn(CCCN3CCC(c4nc5ccccc5s4)CC3)c12` are 251 nM, 79.4 nM and 112%.
At GHSR1a receptor, `COc1cccc2c(C(=O)NCc3cccc(Cl)c3)cn(CCCN3C4CCC3CC(CC(=O)c3ccccc3)C4)c12` (stereo not shown) had a Ki of 200 nM. On Ghrelin receptor, the IC50 is 79.4 nM and the Emax was 104%.
On the same counts, the results for `COc1cccc2c(C(=O)NCC(C)C)cn(CCCN3CCCN(CCc4ccccc4)CC3)c12` are 794 nM, 100 nM and 114%.
On the same counts, the results for `CCCCC[C@H]1C[C@H]2CC[C@@H](C1)N2CCCn1cc(C(C)=O)c2ccccc21` are 2510 nM, 100 nM and 118%.
On the same counts, the results for `CCCOC1CCN(CCCn2cc(C(=O)CC)c3cc(Br)ccc32)CC1` are 10000 nM, 158 nM and 90%.
At GHSR1a receptor, `COc1cccc2c(C(=O)NCc3cccc(Cl)c3)cn(CCCNCCOc3ccccc3)c12` showed an inhibitory constant (Ki) of 39.8 nM. Further, on Ghrelin receptor, the IC50 is 251 nM and the Emax was 120%.
On the same counts, the results for `COc1cccc2c(C(=O)NCc3cccc(Cl)c3)cn(CCCN3CCN(CCOc4ccc(Cl)cc4)CC3)c12` are 15.8 nM, 251 nM and 104%.
At GHSR1a receptor, `Cc1cccc(CNC(=O)c2cn(CCCN3C4CCC3CC(CCc3ccccc3)C4)c3ccccc23)c1` (stereo not shown) had a Ki of 631 nM. At Ghrelin receptor, the IC50 was 316 nM and the Emax is 108%.
On the same counts, the results for `CC(=O)c1cn(CCCN2[C@@H]3CC[C@H]2C[C@@H](Oc2ccc(Cl)cc2)C3)c2ccccc12` are 7940 nM, 398 nM and 107%.
Turning to `COc1cccc2c(C(=O)NCc3cccc(C)c3)cn(CCCNC3Cc4ccccc4C3)c12`, the Ki at GHSR1a receptor was 79.4 nM. Also, at Ghrelin receptor, the IC50 was 398 nM and the Emax was 84%.
On the same counts, the results for `COc1cccc2c(C(=O)NCc3cccc(C)c3)cn(CCCN3CCN(CCOc4ccc(Cl)cc4)CC3)c12` are 126 nM, 501 nM and 79%.
On the same counts, the results for `COc1cccc2c(C(=O)NCc3cccc(Cl)c3)cn(CCCNC3Cc4ccccc4C3)c12` are 63.1 nM, 794 nM and 133%.
On the same counts, the results for `COc1cccc2c(C(=O)c3ccccc3)cn(CCCN3CCN(CCOc4ccc(Cl)cc4)CC3)c12` are 126 nM, 1000 nM and 66%.
For `COc1cccc2c(C(=O)NCc3cccc(C)c3)cn(CCCNCCOc3ccccc3)c12`, the Ki at GHSR1a receptor is 100 nM. Besides, the Emax at Ghrelin receptor is 52%.
In the case of `COc1cccc2c(C(=O)NCC(C)C)cn(CCCN3CCC(CCOc4ccc(Cl)cc4)CC3)c12`, the Ki on GHSR1a receptor is 158 nM. Further, on Ghrelin receptor, the Emax stood at 45%.
